# From patent publication US8278304B2, “Substituted 4-hydroxypyrimidine-5-carboxamides” (Merck Sharp & Dohme Corp., priority 2008, dated 2012)
# Structures can show the parent of a compound that is named as a salt.
# Target: T1, PHD2 (Homo sapiens, UniProt Q9GZT9)
# T1 construct: FLAG-tagged full length PHD2 expressed in and purified from baculovirus-infected Sf9 cells; FLAG; made in house; host or cells: baculovirus-infected Sf9 cells
# Experiment: PHD2 / HIF-1α peptide hydroxylation assay, time resolved fluorescence (VHL complex detection)
# Assay type: biochemical
# Details: FLAG-tagged full length PHD2; 0.2 μM 2-oxoglutarate, 0.5 μM HIF-1α peptide; read-out: PHD2 Activity (PHD2 binding activity expressed as IC50 (nM))
# Method in brief: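 Sf9-expressed FLAG-tagged full-length PHD2 (0.15 μg/ml) preincubated with compound 30 min at room temperature in Tris pH 7.4 buffer with 10 μM ferrous sulfate, 1 mM ascorbate and catalase. Reaction started with 0.2 μM 2-oxoglutarate and 0.5 μM biotinylated HIF-1α peptide (final); hydroxylation detected by time-resolved fluorescence via VHL complex binding.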
# T1 sequence (Q9GZT9 whole entry): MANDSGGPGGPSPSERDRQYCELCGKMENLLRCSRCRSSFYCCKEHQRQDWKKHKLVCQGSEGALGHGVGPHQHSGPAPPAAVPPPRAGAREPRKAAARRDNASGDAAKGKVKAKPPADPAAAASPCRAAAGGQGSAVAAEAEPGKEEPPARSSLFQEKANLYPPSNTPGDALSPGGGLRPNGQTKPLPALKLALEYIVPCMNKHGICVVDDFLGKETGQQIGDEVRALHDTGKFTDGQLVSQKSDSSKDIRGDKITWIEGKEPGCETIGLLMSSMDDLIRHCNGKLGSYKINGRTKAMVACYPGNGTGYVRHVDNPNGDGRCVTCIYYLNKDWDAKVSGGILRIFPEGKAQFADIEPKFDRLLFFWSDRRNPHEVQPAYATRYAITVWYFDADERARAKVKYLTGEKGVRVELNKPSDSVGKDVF
row,SMILES,IC50 [nM]
1,"CC(NC(=O)c1cnc(-n2cccn2)nc1O)[C@]12C[C@H]3C[C@H](C[C@H](C3)C1)C2 (stereo partly drawn) [Example 90, N-{(1R)-1-[(3S,5S,7S)-1-adamantyl]ethyl}-4-hydroxy-2-(1H-pyrazol-1-yl)pyrimidine-5-carboxamide]",10 to 100
2,"Cc1cccc(-c2ncc(C(=O)NCc3ccc(-c4ccccc4)cc3)c(O)n2)n1 [Example 15, N-(biphenyl-4-ylmethyl)-4-hydroxy-2-(6-methylpyridin-2-yl)pyrimidine-5-carboxamide]",100 to 1000
3,"CC(C)(NC(=O)c1cnc(-c2cc(Br)ccn2)nc1O)c1ccccc1 [Example 1, 2-(4-Bromopyridin-2-yl)-4-hydroxy-N-(1-methyl-1-phenylethyl)pyrimidine-5-carboxamide]",10 to 100
4,"CC(NC(=O)c1cnc(-n2cccn2)nc1O)c1ccccn1 (centres unmarked) [Example 118, 4-hydroxy-2-(1H-pyrazol-1-yl)-N-[1-(pyridin-2-yl)ethyl]pyrimidine-5-carboxamide]",10 to 100
5,"C[C@@H](NC(=O)c1cnc(-n2cccn2)nc1O)C1CCCCC1 [Example 84, N-[(1R)-1-cyclohexylethyl]-4-hydroxy-2-(1H-pyrazol-1-yl)pyrimidine-5-carboxamide]",10 to 100
6,"Cc1nc(-c2ncc(C(=O)NC(C)(C)C)c(O)n2)cs1 [Example 40, N-(tert-butyl)-4-hydroxy-2-(2-methyl-1,3-thiazol-4-yl)pyrimidine-5-carboxamide]",100 to 1000
7,"Cc1cccc(-c2ncc(C(=O)NCc3ccc(Cl)cc3Cl)c(O)n2)n1 [Example 17, N-(2,4-dichlorobenzyl)-4-hydroxy-2-(6-methylpyridin-2-yl)pyrimidine-5-carboxamide]",100 to 1000
8,"O=C(NCc1ccc(-c2ccccc2)cc1)c1cnc(-c2cccnn2)nc1O [Example 28, N-(biphenyl-4-ylmethyl)-4-hydroxy-2-pyridazin-3-ylpyrimidine-5-carboxamide]",≤ 10
9,"Cc1nc(-c2ncc(C(=O)NCc3ccc(C(F)(F)F)cc3)c(O)n2)cs1 [Example 29, 4-Hydroxy-2-(2-methyl-1,3-thiazol-4-yl)-N-[4-(trifluoromethyl)benzyl]pyrimidine-5-carboxamide]",10 to 100
10,"O=C(NC1c2ccccc2-c2ccccc21)c1cnc(-n2cccn2)nc1O [Example 102, N-9H-fluoren-9-yl-4-hydroxy-2-(1H-pyrazol-1-yl)pyrimidine-5-carboxamide]",≤ 10
11,"C[C@H](NC(=O)c1cnc(-n2cccn2)nc1O)c1ccc(Br)cc1 [Example 91, N-[(1S)-1-(4-bromophenyl)ethyl]-4-hydroxy-2-(1H-pyrazol-1-yl)pyrimidine-5-carboxamide]",≤ 10
12,"N#Cc1ccc(CNC(=O)c2cnc(-n3cccn3)nc2O)cn1 [Example 110, N-[(6-cyanopyridin-3-yl)methyl]-4-hydroxy-2-(1H-pyrazol-1-yl)pyrimidine-5-carboxamide]",10 to 100
13,"O=C(NCc1ccc(F)cc1)c1cnc(-c2ncccn2)nc1O [Example 21, N-(4-fluorobenzyl)-4-hydroxy-2,2′-bipyrimidine-5-carboxamide]",1000 to 10000
14,"COc1ccc(C(NC(=O)c2cnc(-c3cccnn3)nc2O)c2ccc(C#N)cc2)c(OC)c1 (single isomer, unassigned) [Example 154, N-[(4-cyanophenyl)(2,4-dimethoxyphenyl)methyl]-4-hydroxy-2-(pyridazin-3-yl)pyrimidine-5-carboxamide]",≤ 10
15,"CC(C)(NC(=O)c1cnc(-n2cccn2)nc1O)c1ccc(F)c(F)c1 [Example 89, N-[1-(3,4-difluorophenyl)-1-methylethyl]-4-hydroxy-2-(1H-pyrazol-1-yl)pyrimidine-5-carboxamide]",≤ 10
16,"O=C(c1ccccc1)c1ccc(CNC(=O)c2cnc(-n3cccn3)nc2O)cc1 [Example 95, N-(4-benzoylbenzyl)-4-hydroxy-2-(1H-pyrazol-1-yl)pyrimidine-5-carboxamide]",≤ 10

# Second part, the molecule after the results:
row,IC50 [nM],SMILES
1,≤ 10,"COc1ccc(C(NC(=O)c2cnc(-c3cccnn3)nc2O)c2nc(C)cs2)cc1 (single isomer, unassigned) [Example 144, 4-hydroxy-N-[(4-methoxyphenyl)(4-methyl-1,3-thiazol-2-yl)methyl]-2-(pyridazin-3-yl)pyrimidine-5-carboxamide]"
2,≤ 10,"O=C(NC(c1ccccc1)c1ccc(C(F)(F)F)nc1)c1cnc(-n2cccn2)nc1O (single isomer, unassigned) [Example 143, 4-hydroxy-N-{phenyl[6-(trifluoromethyl)pyridin-3-yl]methyl}-2-(1H-pyrazol-1-yl)pyrimidine-5-carboxamide]"
3,≤ 10,"COc1ccc(C(NC(=O)c2cnc(-c3cccnn3)nc2O)c2ccc(OC)nc2)cn1 [Example 192, N-[bis(6-methoxypyridin-3-yl)methyl]-4-hydroxy-2-(pyridazin-3-yl)pyrimidine-5-carboxamide]"
4,≤ 10,"COc1ccc(C(NC(=O)c2cnc(-c3cccnn3)nc2O)c2ccc3cc(OC)ccc3n2)cc1 (centres unmarked) [Example 172, 4-hydroxy-N-[(4-methoxyphenyl)(6-methoxyquinolin-2-yl)methyl]-2-(pyridazin-3-yl)pyrimidine-5-carboxamide]"
5,≤ 10,"COc1ccc(C(NC(=O)c2cnc(-c3cccnn3)nc2O)c2ccc3c(c2)CCO3)cc1 (single isomer, unassigned) [Example 164, N-[2,3-dihydro-1-benzofuran-5-yl(4-methoxyphenyl)methyl]-4-hydroxy-2-(pyridazin-3-yl)pyrimidine-5-carboxamide]"
6,≤ 10,"O=C(NCc1ccc(-c2ccc(F)cc2)nc1)c1cnc(-n2cccn2)nc1O [Example 108, N-{[6-(4-fluorophenyl)pyridin-3-yl]methyl}-4-hydroxy-2-(1H-pyrazol-1-yl)pyrimidine-5-carboxamide]"
7,≤ 10,"CC[C@H](NC(=O)c1cnc(-n2cc(C)cn2)nc1O)c1ccccc1 [Example 133, 4-hydroxy-2-(4-methyl-1H-pyrazol-1-yl)-N-[(1S)-1-phenylpropyl]pyrimidine-5-carboxamide]"
8,≤ 10,"C[C@H](NC(=O)c1cnc(-c2cccnn2)nc1O)c1ccc(-c2ccc(F)nc2)cc1 [Example 186, N-{(1S)-1-[4-(6-fluoropyridin-3-yl)phenyl]ethyl}-4-hydroxy-2-pyridazin-3-ylpyrimidine-5-carboxamide trifluoroacetate (salt)]"
9,≤ 10,"CC[C@H](NC(=O)c1cnc(-n2cccn2)nc1O)c1ccccc1 [Example 48, 4-Hydroxy-N-[(1S)-1-phenylpropyl]-2-(1H-pyrazol-1-yl)pyrimidine-5-carboxamide]"
10,≤ 10,"CC(C)(NC(=O)c1cnc(-n2cccn2)nc1O)C(=O)N1CCc2ccccc21 [Example 189, N-[1-(2,3-dihydro-1H-indol-1-yl)-2-methyl-1-oxopropan-2-yl]-4-hydroxy-2-(1H-pyrazol-1-yl)pyrimidine-5-carboxamide]"
